The source of these data is patent US9512139B2, “Conformationally constrained, fully synthetic macrocyclic compounds” (POLYPHOR AG, priority 2009, dated 2016).

Where two headings read alike, the source gives them in different places. A value given as a limit tells only on which side of the number the result lay.

Test [1] has as its system Wnt/Beta-Catenin pathway (LEF-TCF-bla SW480 cells). Description: Wnt/Beta-Catenin (APC-/-) LEF-TCF-bla SW480 inhibitor screen, constitutively activated. The class given is cell-based. The note with it: for IC50: read-out: TCF/LEF receptor gene activity IC50; for inhibition at 10 µM: read-out: TCF/LEF receptor gene activity [% inhibition at 10 μM]. The method, then: (§1) 3. Assays for the Wnt-Pathway
(§2) For determining the activity of the test compounds on the Wnt-pathway each substances war subjected to two distinct assays: The first (Wnt/Beta-Catenin) assay screened for inhibitors of the Wnt-pathway while the second (MAPK/MEK/B-raf) was conducted in order to confirm that the test compounds modulate the β-catenin-dependent, canonical Wnt pathway and are not acting via a possibly competing β-catenin-independent, noncanonical Wnt messaging system.
(§3) Both assays were performed and analyzed with a Tecan Safire^2 fluorescence plate reader.
Wnt/Beta-Catenin (APC−/−)—LEF-TCF-bla SW480—Inhibitor Screen, Constitutively Activated
(§4) LEF-TCF-bla SW480 cells are thawed and resuspended in Assay Media (OPTI-MEM, 0.5% dialyzed FBS, 0.1 mM NEAA, 1 mM Sodium Pyruvate, 100 U/mL/100 μg/mL Pen/Strep) to a concentration of 312,500 cells/mL. 4 μL of a 10× serial dilution of ICG-001 (control inhibitor starting concentration, 10,000 nM) or compounds are added to appropriate wells of a TC-Treated assay plate. 32 μL of cell suspension (10,000 cells) is added to the wells. 4 μL of Assay Media is added to all wells to bring the final assay volume to 40 μL. The plate is incubated for 16-24 hours at 37° C./5% CO2 in a humidified incubator. 8 μL of 1 μM Substrate Loading Solution is added to each well and the plate is incubated for 2 hours at room temperature.

Test [2] relates to MAPK/MEK/B-raf pathway (AP1-bla A375 cells). Description: MAPK/MEK/B-raf AP1-bla A375 inhibitor screen, constitutively activated (negative control of the Wnt assay). Type of test: cell-based. On the procedure: as §1, §2, §3
MAPK/MEK/B-raf—APl-bla A375—Inhibitor Screen, Constitutively Activated
as §4, with “AP1-bla A375” for “LEF-TCF-bla SW480”, “Raf1 Kinase Inhibitor” for “ICG-001”

Setting [3] is: Homo sapiens, A-375, read-out: AP receptor gene activity IC50.

Turning to `CN1CC(=O)N2C[C@@H](NC(=O)c3cccc(Cl)c3)C[C@H]2COc2ccc(F)cc2C(=O)N(C)[C@H](C(=O)NCc2cccc3ccccc23)CCC1=O` [Ex. 502, (2S,11S,19aS)-2-[(3-chlorobenzoyl)amino]-15-fluoro-7,12-dimethyl-N-(1-naphthylmethyl)-5,8,13-trioxo-2,3,6,7,8,9,10,11,12,13,19,19a-dodecahydro-1H,5H-pyrrolo[2,1-c] [1,4,7,12] benzoxatriazacyclopentadecine-11-carboxamide], in test [1] (Homo sapiens, SW480), the IC50 amounted to 5.5 µM and the inhibition at 10 µM came to 82%. Moreover, the IC50 in test [2] (setting [3]) was more than 50 µM.

`CN1CC(=O)N2C[C@@H](NC(=O)Cc3ccc4ccccc4c3)C[C@H]2COc2ccc(F)cc2C(=O)N(C)[C@H](C(=O)NCc2cccc3ccccc23)CCC1=O` [Ex. 501, (2S,11S,19aS)-15-fluoro-7,12-dimethyl-2-{[2-(2-naphthyl)acetyl]amino}-N-(1-naphthylmethyl)-5,8,13-trioxo-2,3,6,7,8,9, 10,11,12,13,19,19a-dodecahydro-1H,5H-pyrrolo[2,1-c] [1,4,7,12]benzoxatriazacyclo-pentadecine-11-carboxamide]: the “TCF/LEF receptor gene activity [% inhibition at 10 μM]” value in test [1] (10 μM) is reported as 100%. For the same molecule, the IC50 in test [1] was 1.1 µM; in test [2] (read-out: AP receptor gene activity IC50), more than 50 µM.

Consider `CN1CC(=O)N2C[C@@H](NC(=O)c3cccc4ccccc34)C[C@H]2COc2ccc(F)cc2C(=O)N(C)[C@H](C(=O)NCc2ccc3ccccc3c2)CCC1=O` [Ex. 503, (2S,11S,19aS)-15-fluoro-7,12-dimethyl-2-(1-naphthoylamino)-N-(2-naphthylmethyl)-5,8,13-trioxo-2,3,6,7,8,9,10,11,12,13,19,19a-dodecahydro-1H,5H-pyrrolo[2,1-c] [1,4,7,12]benzoxatriazacyclopentadecine-11-carboxamide], for which, in test [1] (Homo sapiens, SW480), the IC50 was found to be 5.8 µM and the inhibition at 10 µM came out at 68%. Further, the IC50 in test [2] (setting [3]) is more than 50 µM.
